From ChEMBL document CHEMBL4304807, “Modulators of KEAP-1 Activity as Potential Therapies for the Treatment of Neurodegenerative Disorders” (ACS Med Chem Lett, 2019)

Target: Kelch-like ECH-associated protein 1 (Homo sapiens, UniProt Q14145)
Assay: Inhibition of KEAP1 interaction with Nrf2 in human HEK293 cells transfected with ARE-LUC assessed as activation of Nrf2 signaling pathway measured after 18 hrs by steady-Glo luciferase assay
Assay type: cell-based

Kelch-like ECH-associated protein 1, sequence (Q14145 whole entry): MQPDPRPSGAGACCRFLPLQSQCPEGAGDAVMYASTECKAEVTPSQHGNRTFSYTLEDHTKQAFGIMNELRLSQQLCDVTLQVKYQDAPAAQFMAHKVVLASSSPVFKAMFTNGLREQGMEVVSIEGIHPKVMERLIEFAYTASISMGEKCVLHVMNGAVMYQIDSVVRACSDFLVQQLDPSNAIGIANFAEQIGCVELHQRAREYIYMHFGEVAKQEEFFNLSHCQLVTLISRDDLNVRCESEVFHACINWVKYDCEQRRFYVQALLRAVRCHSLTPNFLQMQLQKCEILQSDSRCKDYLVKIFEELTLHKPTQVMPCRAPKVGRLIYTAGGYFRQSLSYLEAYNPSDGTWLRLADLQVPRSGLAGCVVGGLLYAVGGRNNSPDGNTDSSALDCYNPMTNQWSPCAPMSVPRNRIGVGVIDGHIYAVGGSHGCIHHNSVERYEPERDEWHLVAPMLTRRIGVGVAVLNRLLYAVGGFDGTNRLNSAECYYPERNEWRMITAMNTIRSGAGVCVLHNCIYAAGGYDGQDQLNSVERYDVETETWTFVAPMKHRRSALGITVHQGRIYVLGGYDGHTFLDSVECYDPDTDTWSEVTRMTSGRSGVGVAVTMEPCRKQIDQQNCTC

EC50 | SMILES
18 nM | COC1(c2ncc(F)cc2C(F)F)C=C(C#N)C(=O)C2(CC2)C1 (centres undefined)
24 nM | COC1(c2ncccc2C(F)(F)F)C=C(C#N)C(=O)C(C)(C)C1 (centres undefined)
8 nM | COC1(c2ncc(F)cc2OC(F)F)C=C(C#N)C(=O)C(C)(C)C1 (centres undefined)
7 nM | COC1(c2ncc(F)cc2-c2cnc(C)s2)C=C(C#N)C(=O)C(C)(C)C1 (centres undefined)
